A value given as a limit tells only on which side of the number the result lay.

In patent publication US12037339B2, “Substituted imidazoles as GLP-1 receptor agonists” (Eccogene Inc., priority 2020, dated 2024) one finds EC50 data, which are given here for 19 molecules.

The target in the test is (Homo sapiens, UniProt P43220). In words: h-GLP-1 activity assay (cAMP HTRF, HEK293 cells with stable expression of human GLP-1). Format: cell-based. The note with it: relative EC50, 10 nM human GLP-1 set as 100% response, 30 min at 37° C. The method, then:
Human GLP-1 agonizing activity was detected in HEK293 cells with stable expression of human GLP-1 by Cisbio cAMP Gs dynamic kit (Catalog #62AM4PEC) according to manufacturer's protocol. Briefly, cells were collected and resuspended in assay buffer containing 0.1% BSA and 0.5 mM of IBMX at concentration to 2.5×10^5 cells/mL. Two μL 5× compound solution and 8 μL cell suspension were added to each well of low-volume 384 white assay plate. After 30 min incubation at 37° C., 5 μL cAMP-d2 working solution and 5 μL anti-cAMP antibody-cryptate were added to each well, and incubate at room temperature for 1 hr. Series dilution of cAMP was used as standard. Human GLP-1 (7-37) was used as positive control and 10 nM human GLP-1 was set as 100% response. HTRF signals were read at 665 and 615 nm with EnVision plate reader and calculated cAMP concentration by interpolation to the standard curve. The EC50 value of the tested compounds was calculated by fitting the dose response curve using a 4-parameter non-linear regression routine and relative EC50 was presented in Table 29.
(In general: TR-FRET usually uses a lanthanide donor and a delayed reading to cut background.)

Sequence of (Homo sapiens, UniProt P43220) (P43220 24-463): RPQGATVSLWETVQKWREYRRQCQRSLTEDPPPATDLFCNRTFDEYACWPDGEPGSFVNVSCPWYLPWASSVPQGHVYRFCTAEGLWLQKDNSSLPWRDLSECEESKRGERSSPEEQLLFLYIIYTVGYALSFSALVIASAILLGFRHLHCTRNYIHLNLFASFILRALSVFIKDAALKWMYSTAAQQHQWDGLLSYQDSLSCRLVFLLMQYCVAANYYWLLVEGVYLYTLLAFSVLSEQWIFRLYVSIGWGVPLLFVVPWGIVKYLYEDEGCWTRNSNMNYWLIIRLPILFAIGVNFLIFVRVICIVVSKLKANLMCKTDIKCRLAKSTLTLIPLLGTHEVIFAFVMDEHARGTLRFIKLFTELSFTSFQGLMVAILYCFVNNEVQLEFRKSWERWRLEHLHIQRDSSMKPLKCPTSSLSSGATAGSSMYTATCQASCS

In general, EC50 refers to the midpoint of the concentration-response curve. Higher therefore signals lower potency in that assay. `CC1c2c(-n3ccn(-c4ccc5c(cnn5C)c4F)c3=O)c(-c3ccc(F)cc3)nn2CCN1C(=O)c1cn2cc(C3CCOCC3)ccc2c1C1(c2noc(=O)[nH]2)CC1` (racemic) [Compound 23, 3-(1-(2-(3-(3-(4-fluoro-1-methyl-1H-indazol-5-yl)-2-oxo-2,3-dihydro-1H-imidazol-1-yl)-2-(4-fluorophenyl)-4-methyl-4,5,6,7-tetrahydropyrazolo[1,5-a]pyrazine-5-carbonyl)-6-(tetrahydro-2H-pyran-4-yl)indolizin-1-yl)cyclopropyl)-1,2,4-oxadiazol-5(4H)-one] came in with a half-maximal effective concentration (EC50) of 20 to 100 nM.
The same measure for `Cc1cc(-n2nc3c(c2-n2ccn(-c4ccc5c(cnn5C)c4F)c2=O)[C@H](C)N(C(=O)c2cc4cc(C5CCOC(C)(C)C5)ccc4n2-c2cccc(-c4noc(=O)[nH]4)c2)CC3)cc(C)c1F` (mixture of isomers) [Compound 30, 3-(3-(5-(2,2-dimethyltetrahydro-2H-pyran-4-yl)-2-((S)-3-(3-(4-fluoro-1-methyl-1H-indazol-5-yl)-2-oxo-2,3-dihydro-1H-imidazol-1-yl)-2-(4-fluoro-3,5-dimethylphenyl)-4-methyl-4,5,6,7-tetrahydro-2H-pyrazolo[4,3-c]pyridine-5-carbonyl)-1H-indol-1-yl)phenyl)-1,2,4-oxadiazol-5(4H)-one]: 20 to 100 nM; for `Cc1cc(-n2nc3c(c2-n2ccn(-c4ccc5c(cnn5C)c4F)c2=O)CN(C(=O)c2cc4cc(C5CCOC(C)(C)C5)ccc4n2Cc2nnc(O)s2)CC3)cc(C)c1F` (racemic) [Compound 35, 1-(5-(5-(2,2-dimethyltetrahydro-2H-pyran-4-yl)-1-((5-hydroxy-1,3,4-thiadiazol-2-yl)methyl)-1H-indole-2-carbonyl)-2-(4-fluoro-3,5-dimethylphenyl)-4,5,6,7-tetrahydro-2H-pyrazolo[4,3-c]pyridin-3-yl)-3-(4-fluoro-1-methyl-1H-indazol-5-yl)-1,3-dihydro-2H-imidazol-2-one]: over 100 nM.
Consider `Cc1cc(-n2nc3c(c2-n2ccn(-c4ccc5c(cnn5C)c4F)c2=O)CN(C(=O)c2cc4cc(C5CCOC(C)(C)C5)ccc4n2Cc2cc(O)no2)CC3)cc(C)c1F` (racemic) [Compound 36, 1-(5-(5-(2,2-dimethyltetrahydro-2H-pyran-4-yl)-1-((3-hydroxyisoxazol-5-yl)methyl)-1H-indole-2-carbonyl)-2-(4-fluoro-3,5-dimethylphenyl)-4,5,6,7-tetrahydro-2H-pyrazolo[4,3-c]pyridin-3-yl)-3-(4-fluoro-1-methyl-1H-indazol-5-yl)-1,3-dihydro-2H-imidazol-2-one], for which the EC50 was over 100 nM.
`Cc1cc(-n2nc3c(c2-n2ccn(-c4ccc5c(cnn5C)c4F)c2=O)CN(C(=O)c2cc4cc(C5CCOC(C)(C)C5)ccc4n2Cc2cc(O)ns2)CC3)cc(C)c1F` (racemic) [Compound 42, 1-(5-(5-(2,2-dimethyltetrahydro-2H-pyran-4-yl)-1-((3-hydroxyisothiazol-5-yl)methyl)-1H-indole-2-carbonyl)-2-(4-fluoro-3,5-dimethylphenyl)-4,5,6,7-tetrahydro-2H-pyrazolo[4,3-c]pyridin-3-yl)-3-(4-fluoro-1-methyl-1H-indazol-5-yl)-1,3-dihydro-2H-imidazol-2-one] displayed an EC50 of over 100 nM.
The same measure for `Cc1cc(-n2nc3c(c2-n2ccn(-c4ccc5c(cnn5C)c4F)c2=O)[C@H](C)N(C(=O)c2cc4cc(C5CCOC(C)(C)C5)ccc4n2C2(c4nnc(O)s4)CC2)CC3)cc(C)c1F` (mixture of isomers) [Compound 47, 1-((4S)-5-(5-(2,2-dimethyltetrahydro-2H-pyran-4-yl)-1-(1-(5-hydroxy-1,3,4-thiadiazol-2-yl)cyclopropyl)-1H-indole-2-carbonyl)-2-(4-fluoro-3,5-dimethylphenyl)-4-methyl-4,5,6,7-tetrahydro-2H-pyrazolo[4,3-c]pyridin-3-yl)-3-(4-fluoro-1-methyl-1H-indazol-5-yl)-1,3-dihydro-2H-imidazol-2-one]: under 20 nM; for `Cc1cc(-n2nc3c(c2-n2ccn(-c4ccc5c(cnn5C)c4F)c2=O)[C@H](C)N(C(=O)c2cc4cc(C5CCOC(C)(C)C5)ccc4n2C2(c4nc(O)ns4)CC2)CC3)cc(C)c1F` (mixture of isomers) [Compound 48, 1-((4S)-5-(5-(2,2-dimethyltetrahydro-2H-pyran-4-yl)-1-(1-(3-hydroxy-1,2,4-thiadiazol-5-yl)cyclopropyl)-1H-indole-2-carbonyl)-2-(4-fluoro-3,5-dimethylphenyl)-4-methyl-4,5,6,7-tetrahydro-2H-pyrazolo[4,3-c]pyridin-3-yl)-3-(4-fluoro-1-methyl-1H-indazol-5-yl)-1,3-dihydro-2H-imidazol-2-one]: under 20 nM.
Then `Cc1cc(-n2nc3c(c2-n2ccn(-c4ccc5c(cnn5C)c4F)c2=O)[C@H](C)N(C(=O)c2cc4cc(C5CCOC(C)(C)C5)ccc4n2-c2ccccc2C(=O)O)CC3)cc(C)c1F` (mixture of isomers) [Compound 54, 2-(5-(2,2-dimethyltetrahydro-2H-pyran-4-yl)-2-((S)-3-(3-(4-fluoro-1-methyl-1H-indazol-5-yl)-2-oxo-2,3-dihydro-1H-imidazol-1-yl)-2-(4-fluoro-3,5-dimethylphenyl)-4-methyl-4,5,6,7-tetrahydro-2H-pyrazolo[4,3-c]pyridine-5-carbonyl)-1H-indol-1-yl)benzoic acid], with under 20 nM.
The same measure for `Cc1cc(-n2nc3c(c2-n2ccn(-c4ccc5c(cnn5C)c4F)c2=O)[C@H](C)N(C(=O)c2cc4cc(C5CCOC(C)(C)C5)ccc4n2C2(CNS(C)(=O)=O)CC2)CC3)cc(C)c1F` (mixture of isomers) [Compound 64, N-((1-(5-(2,2-dimethyltetrahydro-2H-pyran-4-yl)-2-((S)-3-(3-(4-fluoro-1-methyl-1H-indazol-5-yl)-2-oxo-2,3-dihydro-1H-imidazol-1-yl)-2-(4-fluoro-3,5-dimethylphenyl)-4-methyl-4,5,6,7-tetrahydro-2H-pyrazolo[4,3-c]pyridine-5-carbonyl)-1H-indol-1-yl)cyclopropyl)methyl)methanesulfonamide]: over 100 nM; for `C[C@H]1c2c(nn(-c3ccc(F)c(C4CC4)c3)c2-n2ccn(-c3ccc4c(cnn4C)c3F)c2=O)CCN1C(=O)c1nn2cc(C3CCOC(C)(C)C3)cnc2c1C1(c2noc(=O)[nH]2)CC1` (mixture of isomers) [Compound 103, 3-(1-(2-((S)-2-(3-cyclopropyl-4-fluorophenyl)-3-(3-(4-fluoro-1-methyl-1H-indazol-5-yl)-2-oxo-2,3-dihydro-1H-imidazol-1-yl)-4-methyl-4,5,6,7-tetrahydro-2H-pyrazolo[4,3-c]pyridine-5-carbonyl)-6-(2,2-dimethyltetrahydro-2H-pyran-4-yl)pyrazolo[1,5-a]pyrimidin-3-yl)cyclopropyl)-1,2,4-oxadiazol-5(4H)-one]: under 20 nM.
Take `Cc1cc(-n2nc3c(c2-n2ccn(-c4ccc5c(cnn5C)c4F)c2=O)[C@H](C)N(C(=O)c2cn4cc([C@@H]5CCOC(C)(C)C5)ccc4c2[C@@]2(c4noc(=O)[nH]4)C[C@@H]2C)CC3)cc(C)c1F` (single isomer, unassigned) [Compound 3]: the EC50 is under 20 nM.
On to `Cc1cc(-n2nc3c(c2-n2ccn(-c4ccc5c(cnn5C)c4F)c2=O)[C@H](C)N(C(=O)c2cn4cc([C@H]5CCOC(C)(C)C5)ccc4c2[C@@]2(c4noc(=O)[nH]4)C[C@@H]2C)CC3)cc(C)c1F` (single isomer, unassigned) [Compound 4], for which the EC50 lay within 20 to 100 nM.
Then `Cc1cc(-n2nc3c(c2-n2ccn(-c4ccc5c(cnn5C)c4F)c2=O)[C@H](C)N(C(=O)c2cn4cc([C@H]5CCOC(C)(C)C5)ccc4c2[C@]2(c4noc(=O)[nH]4)C[C@@H]2C)CC3)cc(C)c1F` (single isomer, unassigned) [Compound 5], with under 20 nM; and `Cc1cc(-n2nc3c(c2-n2ccn(-c4ccc5c(cnn5C)c4F)c2=O)[C@H](C)N(C(=O)c2cn4cc([C@@H]5CCOC(C)(C)C5)ccc4c2[C@]2(c4noc(=O)[nH]4)C[C@@H]2C)CC3)cc(C)c1F` (single isomer, unassigned) [Compound 6], with 20 to 100 nM.
Consider `Cc1cc(-c2ccc3c(c2)cc(C(=O)N2CCn4nc(-c5ccc(F)cc5)c(-n5ccn(-c6ccc7c(cnn7C)c6F)c5=O)c4[C@@H]2C)n3C2(c3noc(=O)[nH]3)CC2)ccn1` (single isomer, unassigned) [Compound 7], for which the EC50 was under 20 nM.
On to `C[C@H]1c2c(nn(-c3ccc(C(F)(F)F)cc3)c2-n2ccn(-c3ccc4c(cnn4C)c3F)c2=O)CCN1C(=O)c1cn2cc([C@@H]3CCOC(C)(C)C3)ccc2c1C1(c2noc(=O)[nH]2)CC1` (single isomer, unassigned) [Compound 8], for which the concentration giving a half-maximal response (EC50) is under 20 nM.
`Cc1cc(-n2nc3c(c2-n2ccn(-c4ccc5c(cnn5C)c4F)c2=O)[C@H](C)N(C(=O)c2cc4cc([C@H]5CCOC(C)(C)C5)ccn4c2C2(c4noc(=O)[nH]4)CC2)CC3)cc(C)c1F` (single isomer, unassigned) [Compound 9] gave an EC50 of 20 to 100 nM.
`C[C@H]1c2c(nn(-c3ccc(F)cc3)c2-n2ccn(-c3ccc4c(cnn4C)c3F)c2=O)CCN1C(=O)c1cn2cc([C@@H]3CCOC(C)(C)C3)ccc2c1C1(c2noc(=O)[nH]2)CC1` (single isomer, unassigned) [Compound 11] came in with a concentration for a half-maximal effect (EC50) of under 20 nM.
Then `C[C@H]1c2c(nn(-c3ccc(F)c(Cl)c3)c2-n2ccn(-c3ccc4c(cnn4C)c3F)c2=O)CCN1C(=O)c1cn2cc([C@@H]3CCOC(C)(C)C3)ccc2c1C1(c2noc(=O)[nH]2)CC1` (single isomer, unassigned) [Compound 12], with under 20 nM.
